Source: patent publication US9839642B2, “Beta-tetrazolyl-propionic acids as metallo-beta-lactamase inhibitors” (priority 2014, dated 2017)

Columns and labels:
[1] = tested on: Klebsiella pneumoniae expressing VIM-1 (IHMA599644); assay: Antibiotic potentiation activity: synergistic concentration (MITC95) with imipenem, growth by OD600; type: cell-based; details: 95% inhibition of bacterial growth, strain IHMA599644
How it was run: (§1)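 Colonies from overnight agar plates (35 °C) were suspended in saline and diluted 1:100 into 1.1× CAMHB. Inhibitor (final 200 μM to 0.195 μM) was combined with imipenem at 1 or 4 μg/ml, incubated 22–24 h at 35 °C, and absorbance read; MITC95 is the lowest inhibitor concentration giving 95% growth inhibition.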

[2] = tested on: Escherichia coli expressing NDM-1 (CLB30005); assay: as above; type: cell-based; details: 95% inhibition of bacterial growth, strain CLB30005
How it was run: as §1

[3] = tested on: Serratia marcescens expressing IMP-1 (CL5741); assay: as above; type: cell-based; details: 95% inhibition of bacterial growth, strain CL5741
How it was run: as §1

[4] = target: IMP-1 (Serratia marcescens, UniProt P52699); assay: Enzyme activity: determination of IC50, fluorescence assay with CCF2-FA substrate; type: biochemical; details: enzyme 2 pM, CCF2-FA 1.25 μM, 2 hours at 25° C.; read-out: IMP1 IC50
How it was run: (§2)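 Enzyme at 1 pM (NDM-1), 2 pM (IMP-1) or 30 pM (VIM-1) was incubated with inhibitor (20 μM to 0.00063 μM) and 1.25 μM CCF2-FA in 100 mM KH2PO4 pH 7, 0.005% Tween-20, 10 μM ZnSO4 for 2 hours at 25° C. Fluorescence was read at ex 405/em 460 nm; IC50 from 4-parameter fit.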

[5] = target: NDM-1 (Klebsiella pneumoniae, UniProt C7C422); assay: as above; type: biochemical; details: enzyme 1 pM, CCF2-FA 1.25 μM, 2 hours at 25° C.; read-out: NDM1 IC50
How it was run: as §2

[6] = target: VIM-1 (Pseudomonas aeruginosa, UniProt A0A0F7KYQ8); assay: as above; type: biochemical; details: enzyme 30 pM, CCF2-FA 1.25 μM, 2 hours at 25° C.; read-out: VIM1 IC50
How it was run: as §2

Chain of NDM-1 (C7C422 29-270, looked up, species assumed): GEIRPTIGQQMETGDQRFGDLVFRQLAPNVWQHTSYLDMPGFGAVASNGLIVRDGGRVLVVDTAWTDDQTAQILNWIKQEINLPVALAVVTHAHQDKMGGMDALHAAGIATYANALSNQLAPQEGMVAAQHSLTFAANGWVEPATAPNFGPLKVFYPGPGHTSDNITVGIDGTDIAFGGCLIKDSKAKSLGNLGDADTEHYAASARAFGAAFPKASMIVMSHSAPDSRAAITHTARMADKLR
Chain of IMP-1 (P52699 19-246, looked up, species assumed): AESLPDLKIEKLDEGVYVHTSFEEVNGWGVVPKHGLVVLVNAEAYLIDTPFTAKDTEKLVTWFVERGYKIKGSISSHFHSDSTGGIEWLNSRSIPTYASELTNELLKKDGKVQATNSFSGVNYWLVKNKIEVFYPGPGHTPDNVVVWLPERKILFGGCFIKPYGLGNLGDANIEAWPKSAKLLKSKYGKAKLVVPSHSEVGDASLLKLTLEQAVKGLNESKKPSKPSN

Row | Structure (SMILES) | VIM1 KP599644 MITC95 [1] | NDM1 EC30005 MITC95 [2] | IMP1 SM5741 MITC95 [3] | IC50 [4] | IC50 [5] | IC50 [6]
1 | CCC[C@H](C(=O)O)[C@H](Cc1ccc(-c2ccc(C(C)N3CCOCC3)cc2)cc1)c1nn[nH]n1 (stereo partly drawn) [Example 192, (2S)-2-[(1S)-2-[4′-(1-morpholin-4-ylethyl)biphenyl-4-yl]-1-(2H-tetrazol-5-yl)ethyl]pentanoic acid] | 200 µM | 7.8 µM | 9.4 µM | 45 nM | 29 nM | 29 nM
2 | CCC[C@H](C(=O)O)[C@H](Cc1ccc(-c2ccc3c(c2)CCC(N)C3)cc1)c1nn[nH]n1 (stereo partly drawn) [Example 193, (2S)-2-[(1S)-2-[4-(6-amino-5,6,7,8-tetrahydronaphthalen-2-yl)phenyl]-1-(2H-tetrazol-5-yl)ethyl]pentanoic acid] | 50 µM | 4.7 µM | 6.2 µM | 45 nM | 58 nM | 18 nM
3 | CCC[C@H](C(=O)O)[C@H](Cc1ccc(-c2cccc(OC3CCNCC3)n2)cc1)c1nn[nH]n1 [Example 194, (2S)-2-[(1S)-2-{4-[6-(piperidin-4-yloxy)pyridin-2-yl]phenyl}-1-(2H-tetrazol-5-yl)ethyl]pentanoic acid] | 50 µM | 27 µM | 75 µM | 640 nM | 170 nM | 6.7 nM
4 | CCC[C@H](C(=O)O)[C@H](Cc1ccc(-c2cccc(C3CCCNC3)c2)cc1)c1nn[nH]n1 (stereo partly drawn) [Example 195, (2S)-2-[(1S)-2-(3′-piperidin-3-ylbiphenyl-4-yl)-1-(2H-tetrazol-5-yl)ethyl]pentanoic acid] | 38 µM | 4.7 µM | 28 µM | 110 nM | 85 nM | 11 nM
5 | CCC[C@H](C(=O)O)[C@H](Cc1ccc(-c2cnc(N3CCCC3)s2)cc1)c1nn[nH]n1 [Example 196, (2S)-2-[(1S)-2-[4-(2-pyrrolidin-1-yl-1,3-thiazol-5-yl)phenyl]-1-(2H-tetrazol-5-yl)ethyl]pentanoic acid] | 125 µM | 7.8 µM | 14 µM | 45 nM | 9.5 nM | 4.1 nM
6 | CCC[C@H](C(=O)O)[C@H](Cc1ccc(-c2ccc(S(N)(=O)=O)cc2)cc1)c1nn[nH]n1 [Example 197, (2S)-2-[(1S)-2-(4′-sulfamoylbiphenyl-4-yl)-1-(2H-tetrazol-5-yl)ethyl]pentanoic acid] | 18.8 µM | 4.7 µM | 14 µM | 28 nM | 4.9 nM | 0.89 nM
7 | CCC[C@H](C(=O)O)[C@H](Cc1ccc(-c2ccncc2)cc1)c1nn[nH]n1 [Example 198, (2S)-2-[(1S)-2-(4-pyridin-4-ylphenyl)-1-(2H-tetrazol-5-yl)ethyl]pentanoic acid] | 18.8 µM | 6.2 µM | 6.2 µM | 75 nM | 14 nM | 1.2 nM
8 | CCC[C@H](C(=O)O)[C@H](Cc1ccc(-c2ccc(N)nc2)cc1)c1nn[nH]n1 [Example 200, (2S)-2-[(1S)-2-[4-(6-aminopyridin-3-yl)phenyl]-1-(2H-tetrazol-5-yl)ethyl]pentanoic acid] | 18.8 µM | 4.7 µM | 9.4 µM | 34 nM | 8.1 nM | 1.5 nM
9 | CCC[C@H](C(=O)O)[C@H](Cc1ccc(-c2cccc(C(N)=O)c2)cc1)c1nn[nH]n1 [Example 201, (2S)-2-[(1S)-2-(3′-carbamoylbiphenyl-4-yl)-1-(2H-tetrazol-5-yl)ethyl]pentanoic acid] | 62 µM | 7.8 µM | 12.5 µM | 29 nM | 9 nM | 2.1 nM
10 | CCC[C@H](C(=O)O)[C@H](Cc1ccc(-c2ccc(C(=O)NC)cc2)cc1)c1nn[nH]n1 [Example 202, (2S)-2-[(1S)-2-[4′-(methylcarbamoyl)biphenyl-4-yl]-1-(2H-tetrazol-5-yl)ethyl]pentanoic acid] | 50 µM | 9.4 µM | 4.7 µM | 22 nM | 5.9 nM | 2.3 nM
11 | CCC[C@H](C(=O)O)[C@H](Cc1ccc(-c2ccc(N3CCOCC3)nc2)cc1)c1nn[nH]n1 [Example 203, (2S)-2-[(1S)-2-[4-(6-morpholin-4-ylpyridin-3-yl)phenyl]-1-(2H-tetrazol-5-yl)ethyl]pentanoic acid] | 200 µM | 9.4 µM | 9.4 µM | 60 nM | 14 nM | 4.3 nM
12 | CCC[C@H](C(=O)O)[C@H](Cc1ccc(-c2cnc(N3CCCCC3)s2)cc1)c1nn[nH]n1 [Example 204, (2S)-2-[(1S)-2-[4-(2-piperidin-1-yl-1,3-thiazol-5-yl)phenyl]-1-(2H-tetrazol-5-yl)ethyl]pentanoic acid] | 100 µM | 3.9 µM | 4.7 µM | 26 nM | 3.4 nM | 2.1 nM
13 | CCC[C@H](C(=O)O)[C@H](Cc1ccc(-c2ccccc2CN2CCCCC2)cc1)c1nn[nH]n1 [Example 205, (2S)-2-[(1S)-2-[2′-(piperidin-1-ylmethyl)biphenyl-4-yl]-1-(2H-tetrazol-5-yl)ethyl]pentanoic acid] | >200 µM | 50 µM | 7.8 µM | 63 nM | 500 nM | 360 nM
14 | CCC[C@H](C(=O)O)[C@H](Cc1ccc(-c2cccc(CN3CCCCC3)c2)cc1)c1nn[nH]n1 [Example 206, (2S)-2-[(1S)-2-[3′-(piperidin-1-ylmethyl)biphenyl-4-yl]-1-(2H-tetrazol-5-yl)ethyl]pentanoic acid] | 50 µM | 18.8 µM | 18.8 µM | 130 nM | 82 nM | 7.2 nM
15 | CCC[C@H](C(=O)O)[C@H](Cc1ccc(-c2cccc(CN3CCOCC3)c2)cc1)c1nn[nH]n1 [Example 207, (2S)-2-[(1S)-2-[3′-(morpholin-4-ylmethyl)biphenyl-4-yl]-1-(2H-tetrazol-5-yl)ethyl]pentanoic acid] | 150 µM | 16 µM | 16 µM | 100 nM | 64 nM | 8 nM
16 | CCC[C@H](C(=O)O)[C@H](Cc1ccc(-c2csc(N3CCOCC3)n2)cc1)c1nn[nH]n1 [Example 208, (2S)-2-[(1S)-2-[4-(2-morpholin-4-yl-1,3-thiazol-4-yl)phenyl]-1-(2H-tetrazol-5-yl)ethyl]pentanoic acid] | 200 µM | 25 µM | 18.8 µM | 100 nM | 61 nM | 16 nM
17 | CCC[C@H](C(=O)O)[C@H](Cc1ccc(-c2cccc(CN)c2)cc1)c1nn[nH]n1 [Example 210, (2S)-2-[(1S)-2-[3′-(aminomethyl)biphenyl-4-yl]-1-(2H-tetrazol-5-yl)ethyl]pentanoic acid] | 18.8 µM | 6.2 µM | 12.5 µM | 130 nM | 100 nM | 8.2 nM
18 | CCC[C@H](C(=O)O)[C@H](Cc1ccc(-c2ccc(CO)cc2)cc1)c1nn[nH]n1 [Example 211, (2S)-2-[(1S)-2-[4′-(hydroxymethyl)biphenyl-4-yl]-1-(2H-tetrazol-5-yl)ethyl]pentanoic acid] | 25 µM | 3.1 µM | 2.3 µM | 20 nM | 12 nM | 3.4 nM
19 | CCC[C@H](C(=O)O)[C@H](Cc1ccc(-c2cn(C)c(=O)n(C)c2=O)cc1)c1nn[nH]n1 [Example 212, (2S)-2-[(1S)-2-[4-(1,3-dimethyl-2,4-dioxo-1,2,3,4-tetrahydropyrimidin-5-yl)phenyl]-1-(2H-tetrazol-5-yl)ethyl]pentanoic acid] | 150 µM | 18.8 µM | 18.8 µM | 91 nM | 31 nM | 15 nM
20 | CCC[C@H](C(=O)O)[C@H](Cc1ccc(-c2ccc(C(C)(C)O)nc2)cc1)c1nn[nH]n1 [Example 213, (2S)-2-[(1S)-2-{4-[6-(1-hydroxy-1-methylethyl)pyridin-3-yl]phenyl}-1-(2H-tetrazol-5-yl)ethyl]pentanoic acid] | 75 µM | 9.4 µM | 18.8 µM | 120 nM | 28 nM | 17 nM
